This assay has as its system Swiss mice, Sarcoma 180 sc, mean tumor weight T/C. The assay can be described thus: NCI In Vivo Anticancer Drug Screen. Data for tumor model Sarcoma 180 (subcutaneous) in Swiss mice. Particulars: endpoint: mean tumor weight, higher = larger tumour. Here is the method:
The antitumor activity of compounds was measured in mice bearing transplantable tumors. Survival or tumor size were measured and the results are expressed as the measurement made in the treated group (T) divided by the measurement made in the vehicle treated control group (C). The tumor model used in this assay is Sarcoma 180 (subcutaneous) in Swiss mice

The mark [1] stands for this setting: dose: 110.0 mg/kg/injection, schedule: Q01DX007 (ip), vehicle: carboxymethylcellulose (CMC).
[2] abbreviates: dose: 250.0 mg/kg/injection, schedule: Q01DX007 (ip), vehicle: carboxymethylcellulose (CMC).
Setting [3] is: dose: 125.0 mg/kg/injection, schedule: Q01DX007 (ip), vehicle: saline.

Structures are written as SMILES. Several values for one entry are separate records, joined by “and”; a condition that tells them apart may be missing. Equal entries are not always repeated. Square brackets hold non-standard residues; d marks the D form. Peptide text beside a SMILES is read from it. ξ: configuration not given here. Ac5c = NC1(C(=O)O)CCCC1; ξS = NC(CO)C(=O)O

By T/C is commonly meant the result in the treated group divided by that in the control group, in per cent. Take `Nc1ccc(C(=O)O)c(O)c1`: the T/C reads like this: (dose: 95.87 mg/kg/injection, schedule: Q01DX007 (ip), vehicle: carboxymethylcellulose (CMC)) 108 % of control and 121 % of control; (dose: 306.8 mg/kg/injection, schedule: Q01DX007 (ip), vehicle: carboxymethylcellulose (CMC)) 44 % of control; (dose: 511.33 mg/kg/injection, schedule: Q01DX007 (ip), vehicle: carboxymethylcellulose (CMC)) 57 % of control.
`CC(=O)Nc1ccc2c(c1)Cc1cc(NC=O)ccc1-2`: the T/C under setting [1] was 54 % of control and 72 % of control; the T/C (dose: 165.0 mg/kg/injection, schedule: Q01DX007 (ip), vehicle: carboxymethylcellulose (CMC)) is 87 % of control; the T/C under setting [2] was 46 % of control; the T/C (dose: 375.0 mg/kg/injection, schedule: Q01DX007 (ip), vehicle: carboxymethylcellulose (CMC)) is 79 % of control.
On to `CC(C)=CCC/C(C)=C/CO`, for which the T/C runs as follows: (dose: 7.8 mg/kg/injection, schedule: Q01DX007 (ip), vehicle: saline) 83 % of control; (dose: 15.6 mg/kg/injection, schedule: Q01DX007 (ip), vehicle: saline) 83 % of control; (dose: 31.3 mg/kg/injection, schedule: Q01DX007 (ip), vehicle: saline) 110 % of control; (dose: 62.5 mg/kg/injection, schedule: Q01DX007 (ip), vehicle: saline) 90 % of control.
With `O=C1C=CC(=Nc2ccc3c(c2)C(Br)c2ccccc2-3)O1` (stereo unspecified), the T/C by setting is: (dose: 16.5 mg/kg/injection, schedule: Q#A X014 (ip), vehicle: saline) 57 % of control and 75 % of control; (dose: 37.5 mg/kg/injection, schedule: Q#A X014 (ip), vehicle: saline) 100 % of control; (dose: 56.25 mg/kg/injection, schedule: Q#A X014 (ip), vehicle: saline) 73 % of control.
Turning to `COc1cc2c3c(c4cc(OC)c(OC)cc4c2cc1OC)CN1CCC[C@H]1C3`, the T/C reads like this: (dose: 10.0 mg/kg/injection, schedule: Q01DX007 (ip), vehicle: water) 70 % of control; (dose: 12.0 mg/kg/injection, schedule: Q01DX007 (ip), vehicle: water) 81 % of control; (dose: 18.0 mg/kg/injection, schedule: Q01DX007 (ip), vehicle: water) 42 % of control.
Regarding `Nc1ccn(C2OC(CO)C(O)C2O)c(=O)n1` (stereo unspecified), the T/C by setting is: (dose: 8.0 mg/kg/injection, schedule: Q01DX007 (ip), vehicle: saline) 47 % of control and 51 % of control; (dose: 12.0 mg/kg/injection, schedule: Q01DX007 (ip), vehicle: saline) 61 % of control and 70 % of control; (dose: 27.0 mg/kg/injection, schedule: Q01DX007 (ip), vehicle: saline) 51 % of control and 73 % of control; (dose: 40.0 mg/kg/injection, schedule: Q01DX007 (ip), vehicle: saline) 37 % of control and 46 % of control; (dose: 60.0 mg/kg/injection, schedule: Q01DX007 (ip), vehicle: saline) 13 % of control and 16 % of control; (dose: 90.0 mg/kg/injection, schedule: Q01DX007 (ip), vehicle: saline) 10 % of control.
Consider `NC(CO)C(=O)NC1(C(=O)O)CCCC1` (stereo unspecified) (H-[ξS]-[Ac5c]-OH), for which the T/C reads like this: under setting [1], 84 % of control; (dose: 167.0 mg/kg/injection, schedule: Q01DX007 (ip), vehicle: carboxymethylcellulose (CMC)) 49 % of control; under setting [2], 21 % of control.
Consider `C[C@]12C=CC(=O)C=C1CC[C@@H]1[C@@H]2[C@@H](O)C[C@@]2(C)[C@H]1CC[C@]2(O)C(=O)COC(=O)C1CCCC1`, for which the T/C (dose: 3.5 mg/kg/injection, schedule: Q#A X014 (sc), vehicle: water) is 68 % of control; the T/C (dose: 5.0 mg/kg/injection, schedule: Q#A X014 (sc), vehicle: water) is 35 % of control; the T/C (dose: 7.5 mg/kg/injection, schedule: Q#A X014 (sc), vehicle: water) was 49 % of control; the T/C (dose: 11.5 mg/kg/injection, schedule: Q#A X014 (sc), vehicle: water) is 47 % of control; the T/C (dose: 17.5 mg/kg/injection, schedule: Q#A X014 (sc), vehicle: water) was 32 % of control.
For the molecule `Cc1ncc(CO)c(C)c1O`, the T/C runs as follows: (dose: 25.25 mg/kg/injection, schedule: Q01DX007 (ip), vehicle: carboxymethylcellulose (CMC)) 102 % of control; (dose: 27.5 mg/kg/injection, schedule: Q01DX007 (ip), vehicle: carboxymethylcellulose (CMC)) 77 % of control; (dose: 50.5 mg/kg/injection, schedule: Q01DX007 (ip), vehicle: carboxymethylcellulose (CMC)) 102 % of control; (dose: 55.0 mg/kg/injection, schedule: Q01DX007 (ip), vehicle: carboxymethylcellulose (CMC)) 54 % of control; (dose: 101.0 mg/kg/injection, schedule: Q01DX007 (ip), vehicle: carboxymethylcellulose (CMC)) 84 % of control; under setting [1], 53 % of control. Further, the T/C (dose: 202.0 mg/kg/injection, schedule: Q01DX007 (ip), vehicle: carboxymethylcellulose (CMC)) is 71 % of control.
For `CCN(CC)P(=S)(N1CC1)N1CC1`, the T/C is 3 % of control (dose: 25.0 mg/kg/injection, schedule: Q01DX007 (ip), vehicle: other); 31 % of control (dose: 50.0 mg/kg/injection, schedule: Q01DX007 (ip), vehicle: other); 1 % of control (dose: 100.0 mg/kg/injection, schedule: Q01DX007 (ip), vehicle: other); 25 % of control (dose: 220.0 mg/kg/injection, schedule: Q01DX007 (ip), vehicle: saline).
Regarding `CC1=CC(O)C(O)C2(C)C1CC1OC(=O)C(O)C3C(C)C(O)C4(O)OCC13C42` (stereo unspecified), the T/C reads like this: (dose: 5.0 mg/kg/injection, schedule: Q01DX007 (sc), vehicle: olive oil, sesame oil, peanut oil) 90 % of control; (dose: 10.0 mg/kg/injection, schedule: Q01DX007 (sc), vehicle: olive oil, sesame oil, peanut oil) 64 % of control; (dose: 20.0 mg/kg/injection, schedule: Q01DX007 (sc), vehicle: olive oil, sesame oil, peanut oil) 96 % of control; (dose: 40.0 mg/kg/injection, schedule: Q01DX007 (sc), vehicle: olive oil, sesame oil, peanut oil) 85 % of control and 86 % of control; (dose: 135.0 mg/kg/injection, schedule: Q01DX007 (sc), vehicle: olive oil, sesame oil, peanut oil) 83 % of control.
Turning to `CCOC(=O)c1ccc(N=NN(C)C)cc1`, the T/C (dose: 62.0 mg/kg/injection, schedule: Q01DX007 (ip), vehicle: carboxymethylcellulose (CMC)) is 74 % of control; the T/C (dose: 125.0 mg/kg/injection, schedule: Q01DX007 (ip), vehicle: carboxymethylcellulose (CMC)) is 49 % of control; the T/C (dose: 187.0 mg/kg/injection, schedule: Q01DX007 (ip), vehicle: carboxymethylcellulose (CMC)) was 23 % of control; the T/C under setting [2] is 12 % of control.
`CN1CC2CC(C1)c1cccc(=O)n1C2` (stereo unspecified): the T/C is, setting by setting: (dose: 6.6 mg/kg/injection, schedule: Q01DX007 (ip), vehicle: saline) 111 % of control; (dose: 10.0 mg/kg/injection, schedule: Q01DX007 (ip), vehicle: saline) 49 % of control; (dose: 15.0 mg/kg/injection, schedule: Q01DX007 (ip), vehicle: saline) 113 % of control; (dose: 22.0 mg/kg/injection, schedule: Q01DX007 (ip), vehicle: saline) 74 % of control.
`O=C(Nc1ccc(C2=NCCN2)cc1)c1cccc(C(=O)Nc2ccc(C3=NCCN3)cc2)c1`: the T/C is 167 % of control (dose: 1.2 mg/kg/injection, schedule: Q01DX007 (ip), vehicle: carboxymethylcellulose (CMC)); 109 % of control (dose: 4.7 mg/kg/injection, schedule: Q01DX007 (ip), vehicle: carboxymethylcellulose (CMC)); 117 % of control (dose: 9.4 mg/kg/injection, schedule: Q01DX007 (ip), vehicle: carboxymethylcellulose (CMC)); 163 % of control (dose: 60.0 mg/kg/injection, schedule: Q01DX007 (ip), vehicle: carboxymethylcellulose (CMC)); 98 % of control (dose: 120.0 mg/kg/injection, schedule: Q01DX007 (ip), vehicle: carboxymethylcellulose (CMC)); 79 % of control (dose: 240.0 mg/kg/injection, schedule: Q01DX007 (ip), vehicle: carboxymethylcellulose (CMC)).
On to `CCCCN(C)N=Nc1ccc(CCCC(=O)OCC)cc1`, for which the T/C is, setting by setting: under setting [3], 62 % of control; (dose: 200.0 mg/kg/injection, schedule: Q01DX007 (ip), vehicle: saline) 40 % of control.
In the case of `CCCOC(=O)C1(N)CCCC1`, the T/C (dose: 148.0 mg/kg/injection, schedule: Q01DX007 (ip), vehicle: saline) is 42 % of control and the T/C (dose: 225.0 mg/kg/injection, schedule: Q01DX007 (ip), vehicle: saline) is 28 % of control.
Regarding `N=C(c1nsnc1N)N1CCCC1`, under setting [3], the T/C was 100 % of control.

(Values after PubChem BioAssay AID342 (DTP/NCI, 2004).)
